Values quoted from earlier work, collected in US11813301B2, “Topical composition with active compounds from Cannabis sativa and Calendula officinalis for reduction of skin lesions” (UAB Satimed, priority 2016, dated 2023).

system: keratinocyte proliferation; conditions: cannabinoid receptor-independent manner

| Compound | inhibition of keratinocyte proliferation |
| --- | --- |
| C=C(C)[C@@H]1CCC(C)=C[C@H]1c1c(O)cc(CCCCC)cc1O [CBD, Cannabidiol] | low micromolar range |
| CCCCCc1cc(O)c2c(c1)OC(C)(C)c1ccc(C)cc1-2 [CBN, Cannabinol] | low micromolar range |
| CCCCCc1cc(O)c2c(c1)OC(C)(C)[C@@H]1CCC(C)=C[C@@H]21 [Preparation D9-THC, Δ9-tetrahydrocannabinol] | low micromolar range |
